Here are results for five molecules from patent US9572831B2, “Composition and method for sulfated non-anticoagulant low molecular weight heparins in cancer and tumor metastasis” (priority 2013, dated 2017).

Read-outs that look alike come from different tables or passages of the source.

In one data set the test system is 253JBV bladder cells. Kind of data set: Western blots of bladder cancer cell proteins. The class given is cell-based. The conditions noted are these: 48 hour; Cisplatin 10 ug/ml, S-NACH 20 ug/ml, LMWH 20 ug/ml. The protocol: 253JBV bladder cells were cultured and treated [Control (PBS), Cisplatin (10 ug/ml), S-NACH (20 ug/ml), LMWH (20 ug/ml)] for 48 hour. Total proteins were collected to quantitate expression of the proteins using western blots.
A general note: A western blot detects proteins with antibodies after separation by electrophoresis.

A further data set deals with MPanc96-luc cells. The class given is in vivo, athymic nude mice. Particulars: S-NACH 20 mg/kg s.c. daily, gemcitabine 100 mg/kg i.p. twice a week, 28 days. The protocol: MPanc96-luc cells were harvested as described above and were orthotopically implanted (2×10^5 cells in 50 μl PBS per mouse) in the pancreas of anesthetized athymic nude mice. Just before treatment initiation, animals (n=10 per group) were randomized by tumor mass detected by an in vivo imaging system (IVIS, described below). Heparin derivatives S-NACH at 20 mg/kg and tinzaparin at 5 mg/kg were administered subcutaneously daily. Gemcitabine at 100 mg/kg was injected intraperitoneally twice a week alone or in combination with either S-NACH or tinzaparin. All mice used for treatment response evaluations were euthanized after 28 days. See Table 2 for the protocol of the study. Imaging was performed once per week to monitor tumor growth. Mice bearing MPanc96-luc tumors were anaesthetized using isoflurane, injected subcutaneously with 50 μl D-luciferin (30 mg/ml), then imaged. Photographic and luminescence images were taken at constant exposure time. Xenogen IVIS® Living Image software version 3.2 was used to quantify non-saturated bioluminescence in regions of interest. Light emission between 5.5×10^6-7.0×10^10 photons was assumed to be indicative of viable luciferase-labeled tumor cells while emissions below this range were considered as background. Bioluminescence was quantified as photons/second for each region of interest. In vivo tumor kinetic growth and metastasis were monitored by signal intensity. Ex vivo imaging was performed to confirm the signal intensity in the tumors after the termination. All specimens were analyzed by histology for routine analysis. Specimens were fixed in 10% buffered formalin, processed routinely, and embedded in paraffin. Then, after fixation, the specimens were transferred into the embedding chambers to hold the specimens in position until the paraffin became solid to prevent further rotation. Four μm serial sections were cut, and then stained using haematoxylin and eosin. Sections were evaluated for various pathologic parameters using a light microscope (Leica, Buffalo Grove, Ill.).

Data set [1] can be described thus: Mouse deaths over all experiments. Type of data set: in vivo, mice. How it is done: In the second experiment, a higher concentration of S-SNACH (20 mg/kg) was used. […] The percentile death of mice was high in the LMWH group and reached 6 animals (50%) at the end of the experiment due to internal bleeding after two invasive surgeries. At the end of all experiments, the percentile death among all groups was calculated and compared.
The average dose of LMWH for enoxaparin in humans is 1.0-1.5 mg/kg and relatively higher in mice. In the experiment performed in the present invention, 5-10 mg/kg was used for LMWH (tinzaparin) and as high as 20-100 mg/kg was used for SNACH.

For data set [2], the system named is intrinsic pathway of the coagulation cascade. Description: APTT assay. Type of data set: biochemical. How it is done:
Activated Partial Thromboplastin Time (aPTT) is sensitive to all factors in the intrinsic pathway of the coagulation cascade and the presence of heparin. The aPTT was measured for each of the 8 USP heparins, using the ACL 8000 Beckman Coulter coagulation analyzer and the Trinity Biotech Trini CLOT Automated aPTT assay kit (Berkeley Heights, N.J.). Additionally, aPTT was measured for heparin, LMWH, and S-NACH.

In the next data set the test system is MCF7-R cells. Kind of data set: Nanoparticle Dox formulations in mice with MCF7-R tumors. Type of data set: in vivo. The protocol: FIG. 20 depicts anti-tumor efficacy of nanoparticle formulations encapsulating Doxorubicin with and without LMWHs vs. un-encapsulated Doxorubicin in mice with MCF7-R Tumors, in accordance with embodiments of the present invention. […] Treatments, as shown in legend, were begun after tumors had reached a size of 50-100 mm^3. Tumor volumes were measured daily. Animals were euthanized when Controls reached a size of 2000 mm^3 (as per IACUC approval).
In vivo data using in mice xenograft (MCF-7R) are shown in Table 5 (amounts of doxorubicin and NACH injected in all cases were 0.625 mg/kg and 2.5 mg/kg body weight).

The subject of the next data set is MCF7-WT cells. Kind of data set: Nanoparticle Dox formulations in mice with MCF7-WT tumors. The conditions noted are these: treatment begun 10 days after inoculation; n=8. The class given is in vivo. The text has this: Mice were inoculated with 1.4×10^7 MCF7-WT cells. […] Tumor volume measurements were obtained over time course shown. Values are mean tumor volume in mm^3±SEM, n=8 mice/group.

Data set [3] can be described thus: Whole blood clotting times by Sonoclot Analyzer and TEG. The class given is in vivo. Particulars: intravenous, 10 mg/kg, mice, n=5. How it is done:
Two heparins, commercial formulation Enoxaparin and non-anticoagulant heparin (NACH) including S-NACH or S-SNACH were evaluated for their effects on coagulation. Whole blood clotting times were measured by the Sonoclot Analyzer (left panel) and by TEG (right panel); n=5.

Consider `N.N.[Cl][Pt][Cl]` [Cisplatin], for which, in the data set with 253JBV bladder cells, the E-cadherin protein expression entry was “increased” and the MMP-2 protein expression entry is recorded as “reduced”.

Consider `Nc1ccn([C@@H]2O[C@H](CO)[C@@H](O)C2(F)F)c(=O)n1` [Gemcitabine], for which the “tumor luciferin signal intensity” value in the data set on MPanc96-luc cells was “reduced”; in the data set with MPanc96-luc cells (listed as GEM), “suppression of tumor signal intensity”. The tumor weights result in the data set on MPanc96-luc cells is listed as “reduced”.

Take Heparin: in data set [1], the “rate of death among the mice” value is reported as “higher mortality”. Further, the aPTT entry in data set [2] is “increased aPTT in a dose-dependent manner”.

Turning to `COc1cccc2c1C(=O)c1c(O)c3c(c(O)c1C2=O)C[C@@](O)(C(=O)CO)C[C@@H]3O[C@H]1C[C@H](N)[C@H](O)[C@H](C)O1` [Doxorubicin], the “tumor volume over time” value with MCF7-R cells (FIG. 20 Panel A) was “same pattern of tumor growth as untreated controls”. In the data set on MCF7-R cells (doxorubicin 0.625 mg/kg, NACH 2.5 mg/kg body weight, mean), the “Tumor Mass” value was found to be 1.3 g. The “tumor growth (tumor volume)” value in the data set with MCF7-WT cells is “effectively inhibited”.

As to Enoxaparin, the “clot times (whole blood clotting time, time to clot initiation)” value in data set [3] was “significantly prolonged”.
